# Assays:
# hippocampal slices [1] = test system: hippocampal slices
# hippocampal slices [2] = experiment: Paired pulse facilitation (PPF) at the CA3-CA1 connection; assay type: cell-based, mouse
# [3] = target: rodent Aβ42 (Mus musculus; Rattus norvegicus); experiment: cell-based or functional assay
Compound,PTP (hippocampal slices [1]),"PPF (hippocampal slices [2]; 20 ms interval, MCL 3 μM for 20 min plus Aβ42)","PPF (hippocampal slices [2]; 30 ms interval, MCL 3 μM for 20 min plus Aβ42)","PPF (hippocampal slices [2]; 40 ms interval, MCL 3 μM for 20 min plus Aβ42)","PPF (hippocampal slices [2]; 50 ms interval, MCL 3 μM for 20 min plus Aβ42)",PPF (hippocampal slices [2]; MCL 3 μM for 20 min alone),"contextual fear conditioning, freezing 24 hrs after training, m3.2 mAb 1 µg in 1 µl into dorsal hippocampi (% of freezing) [3]"
"CNC1(C)C2CCC(C2)C1(C)C (centres unmarked) [MCL, mecamylamine]",does not affect PTP,138.18±22.01 % of facilitation,158.58±16.79 % of facilitation,176.71±17.51 % of facilitation,197.49±22.30 % of facilitation,214.53±20.85%,–
anti-rodent Aβ monoclonal antibody m3.2,–,–,–,–,–,–,16.8
α-bungarotoxin [α-BgTx],does not affect PTP,–,–,–,–,–,–
